Our source for the IC50 values is ChEMBL document CHEMBL1128950, “Synthesis and structure-activity relationships of 9-substituted acridines as endothelin-A receptor antagonists” (Bioorg Med Chem Lett, 1996).

Holding throughout (type): cell-based
Test [1] deals with T1, Endothelin receptor type B (Homo sapiens, UniProt P24530).
T1 sequence (P24530 whole entry): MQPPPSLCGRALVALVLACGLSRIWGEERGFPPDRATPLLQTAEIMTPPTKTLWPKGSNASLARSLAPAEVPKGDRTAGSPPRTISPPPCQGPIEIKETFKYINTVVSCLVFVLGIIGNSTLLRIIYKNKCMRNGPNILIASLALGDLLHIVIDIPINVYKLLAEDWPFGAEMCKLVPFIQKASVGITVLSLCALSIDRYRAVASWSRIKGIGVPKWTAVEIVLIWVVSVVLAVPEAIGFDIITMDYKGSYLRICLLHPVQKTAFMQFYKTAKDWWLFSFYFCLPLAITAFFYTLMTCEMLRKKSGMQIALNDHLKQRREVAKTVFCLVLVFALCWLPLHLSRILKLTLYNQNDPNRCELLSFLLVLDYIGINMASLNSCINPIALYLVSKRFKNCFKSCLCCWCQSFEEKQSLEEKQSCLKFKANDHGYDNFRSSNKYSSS
Nature of the test: Inhibition of binding of [125I]ET1 to cloned human Endothelin B receptor expressed in CHO-K1 cells up to 200 uM; non significant.

The next test has as its target T2, Endothelin-1 receptor (Homo sapiens, UniProt P25101).
T2 sequence (P25101 whole entry): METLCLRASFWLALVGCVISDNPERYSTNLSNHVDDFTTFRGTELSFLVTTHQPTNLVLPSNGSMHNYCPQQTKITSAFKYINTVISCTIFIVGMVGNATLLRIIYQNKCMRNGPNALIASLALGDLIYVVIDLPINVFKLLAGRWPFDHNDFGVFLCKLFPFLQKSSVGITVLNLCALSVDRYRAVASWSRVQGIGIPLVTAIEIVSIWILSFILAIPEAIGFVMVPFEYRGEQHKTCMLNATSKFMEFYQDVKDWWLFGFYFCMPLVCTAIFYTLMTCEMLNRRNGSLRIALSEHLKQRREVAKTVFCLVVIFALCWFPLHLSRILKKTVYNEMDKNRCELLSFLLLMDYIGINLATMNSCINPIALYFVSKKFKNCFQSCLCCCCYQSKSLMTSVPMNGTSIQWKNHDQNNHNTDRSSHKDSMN
Put plainly: Inhibition of binding of [125I]ET1 to cloned human Endothelin A receptor expressed in LtK- cells.

The target in test [2] is T1, Endothelin receptor type B. Nature of the test: Compound was tested for inhibition of binding of [125I]ET1 to cloned human Endothelin B receptor expressed in CHO-K1 cells.

What is called IC50 is the concentration needed to halve the response being measured. As for `COC(=O)C(Cc1ccc2c(c1)OCO2)c1c2ccccc2nc2ccccc12` (centres undefined), the values for the IC50 result (in test [1]; at Endothelin-1 receptor) were “Not Active” and > 25 µM, respectively.

For `NC(=O)C(c1ccc2c(c1)OCO2)c1c2ccccc2nc2ccccc12` (centres undefined), the IC50 result in test [1] is “Not Active”.

Consider `COC(=O)C(c1ccc(Cl)cc1)c1c2ccccc2nc2ccccc12` (centres undefined), for which the IC50 result in test [1] was “Not Active”; at Endothelin-1 receptor, > 25 µM.

With `OCC(c1ccc2c(c1)OCO2)c1c2ccccc2nc2ccccc12` (centres undefined), the IC50 entry was “Not Active” in test [1] and 0.9 µM at Endothelin-1 receptor.

As for `CC(C)(C)OC(=O)C(c1ccc2c(c1)OCO2)c1c2ccccc2nc2ccccc12` (centres undefined), the IC50 result in test [1] was “Not Active”.

Consider `COc1ccc(COC(=O)C(c2ccc3c(c2)OCO3)c2c3ccccc3nc3ccccc23)cc1` (centres undefined), for which, in test [1], the IC50 result is listed as “Not Active”.

For the molecule `O=C(OCc1ccc(Cl)cc1)C(c1ccc2c(c1)OCO2)c1c2ccccc2nc2ccccc12` (centres undefined), the IC50 result is “Not Active” in test [1] and > 25 µM on Endothelin-1 receptor.

For `COC(=O)C(c1ccc2c(c1)OCO2)c1c2ccccc2[n+]([O-])c2ccccc12` (centres undefined), the values for the IC50 entry (in test [1]; at Endothelin-1 receptor) were “Not Active” and > 25 µM, respectively.

Turning to `COC(=O)C(c1ccc2c(c1)OCO2)c1c2c(nc3ccccc13)CCCC2` (centres undefined), the IC50 result in test [1] is “Not Active”.

For the molecule `COC(=O)C(c1ccc(OC)c(OC)c1)c1c2ccccc2nc2ccccc12` (centres undefined), the IC50 entry in test [1] was “Not Active”; at Endothelin-1 receptor it was > 25 µM.

On to `COC(=O)C(c1ccc2c(c1)OCO2)C1c2ccccc2CCc2ccccc21` (centres undefined), for which the IC50 entry in test [1] is “Not Active”; at Endothelin-1 receptor it was > 25 µM.

Consider `O=CC(c1ccc2c(c1)OCO2)c1c2ccccc2nc2ccccc12` (centres undefined), for which the IC50 entry in test [1] was “Not Active”.

As to `COC(=O)C(c1ccc2c(c1)OCO2)c1cc(C)nc2ccccc12` (centres undefined), the IC50 result in test [1] was “Not Active”; at Endothelin-1 receptor, 61 µM.

`COC(=O)C(c1ccc2c(c1)OC(C)(C)O2)c1c2ccccc2nc2ccccc12` (centres undefined): the IC50 entry in test [1] is “Not Active”; on Endothelin-1 receptor, > 25 µM.

With `COC(=O)C(c1ccc([N+](=O)[O-])cc1)c1c2ccccc2nc2ccccc12` (centres undefined), the figures for the IC50 result (in test [1]; on Endothelin-1 receptor) were “Not Active” and > 25 µM, respectively.

Regarding `COC(=O)C(c1ccc2c(c1)OCO2)c1cc(-c2ccccc2)nc2ccccc12` (centres undefined), the values for the IC50 entry (in test [1]; at Endothelin-1 receptor) were “Not Active” and > 25 µM, respectively.

For the molecule `COC(=O)C(Cc1c2ccccc2cc2ccccc12)c1ccc2c(c1)OCO2` (centres undefined), the IC50 result in test [1] is “Not Active”; on Endothelin-1 receptor, 76 µM.

For `COC(=O)C(c1ccc(Cl)c(Cl)c1)c1c2ccccc2nc2ccccc12` (centres undefined), the figures for the IC50 result (in test [1]; on Endothelin-1 receptor) were “Not Active” and > 25 µM, respectively.

As for `Cc1cc(C(C(N)=O)c2ccc3c(c2)OCO3)c2ccccc2n1` (centres undefined), the IC50 result in test [1] is “Not Active”; at Endothelin-1 receptor, 37 µM.

Regarding `COC(=O)C(c1ccc2c(c1)OCO2)C(c1ccccc1)c1ccccc1` (centres undefined), the concentration for half-maximal inhibition (IC50) result in test [1] is “Not Active”; at Endothelin-1 receptor, > 25 µM.

For `COC(=O)C(c1ccc2c(c1)OCO2)c1c2ccccc2nc2c(OC)c(OC)ccc12` (centres undefined), the results for the IC50 entry (in test [1]; on Endothelin-1 receptor) were “Not Active” and > 25 µM, respectively.

For the molecule `O=C(OCc1ccc2c(c1)OCO2)C(c1ccc2c(c1)OCO2)c1c2ccccc2nc2ccccc12` (centres undefined), the IC50 result was “Not Active” in test [1] and 33 µM at Endothelin-1 receptor.

Take `COC(=O)C(c1ccc(OC)cc1)c1c2ccccc2nc2ccccc12` (centres undefined): the IC50 entry is “Not Active” in test [1] and > 25 µM at Endothelin-1 receptor.

For the molecule `O=C(OCc1ccccc1)C(c1ccc2c(c1)OCO2)c1c2ccccc2nc2ccccc12` (centres undefined), the IC50 entry was “Not Active” in test [1] and 57 µM on Endothelin-1 receptor.

Turning to `CC(C)(C)c1ccc(COC(=O)C(c2ccc3c(c2)OCO3)c2c3ccccc3nc3ccccc23)cc1` (centres undefined), the IC50 result was “Not Active” in test [1] and > 25 µM on Endothelin-1 receptor.

Consider `COC(=O)C(c1ccc2c(c1)OCO2)c1c2ccccc2nc2ccccc12` (centres undefined), for which, in test [2], the IC50 is > 250 µM.

Take `COC(=O)C(Oc1c2ccccc2nc2ccccc12)c1ccc2c(c1)OCO2` (centres undefined): in test [1], the IC50 result is given as “Not Active”.

Take `c1ccc2c(Cc3ccc4c(c3)OCO4)c3ccccc3nc2c1`: the IC50 result was “Not Active” in test [1] and > 25 µM on Endothelin-1 receptor.
